Values after ≈ are worked out from the molar mass of the structure shown. Read-outs that look alike come from different tables or passages of the source.
Tests used:
Type in all cases: cell-based
[1] = system: Staphylococcus aureus ATCC25923; assay: MIC broth microdilution, S. aureus ATCC25923; settings: Staphylococcus aureus ATCC25923 (sensitive strain), CAMHB, 37° C., 18-20 hours, 90% growth inhibition
Experimental: (§1) Compound 7 was tested to evaluate its inhibitory effect on Staphylococcus aureus. An experiment was conducted to assess the minimum inhibitory concentration (MIC) of the compound of Formula (I).
(§2) 20.0 mg of test compound was weighed and dissolved in 0.5 mL of filtered DMSO (100%) to prepare a stock solution of 40 mg/mL concentration. Initial stock (Stock 1 and Stock 2) and working stock solution (10 concentrations) were prepared as mentioned in the table below. Final testing concentration in the micro-titer plates was starting from 1000 μg/mL in experiment plate.
(§3) The reference standards gentamicin, norfloxacin and levofloxacin were dissolved using sterile ultrapure water to prepare a stock solution of 2.0 mg/mL concentration. Working stock solution of 64 μg/mL was prepared in CAMHB by diluting 0.032 mL of 2.0 mg/mL stock solution in 0.968 mL of growth medium. The testing concentration in the micro-titer plates is 32 μg/mL.
(§4) Tester strains were sub-cultured on Soyabean Casein digest Agar (SCDA) and incubated at 37° C. for 18-20 hours in aerobic condition. After incubation, the isolated colonies were suspended in sterile saline to prepare the bacterial suspension. The bacterial suspension was adjusted to ˜1×10^8 CFU/mL.
(§5) ? titer plates (Flat bottom) were prepared as per the CLSI recommendations. The test compound and reference compounds dilution were performed in the micro titer plates. Two hundred microliters of respective growth medium were added to the wells of a 96-wellflat bottom plate well A1 to E1 for Broth control. One hundred microliters of respective growth medium were added to all the wells B3 to B11, C3 to C11, D3 to D11, E3 to E11 except B2 to E2. One hundred microliters of prepared test compound 7 working stock solution (10 concentrations) were added from A2 to A11. Two hundred microliters of reference Standard were added to B2, C2 and D2. Two hundred microliters of DMSO were to E2 as negative control. One hundred microliter was transferred from B2, C2, D2 and E2 wells B3, C3, D3 and E3 wells respectively and serially diluted up to B11, C11, D11 and E11 wells. One hundred microliter after serial dilution was discarded from Bit, C11, D11 and E11 wells, wells A12 to F12 serve as culture control.
(§6) The adjusted bacterial suspension was further diluted in CAMHB (Section 6.5), 100 μl of diluted culture was added to micro titer plate where the final concentration was 5×10^5 CFU/mL. Plates were incubated at 37° C. for 18-20 hours at aerobic conditions.
(§7) After incubation, visual readings were recorded, and the optical density was measured at 600 nm in spectrophotometer. The concentration of compound at 90% growth was inhibited compared to growth control was considered as the MIC value.

[2] = system: Staphylococcus aureus ATCC700699; assay: MIC broth microdilution, S. aureus ATCC700699; settings: Staphylococcus aureus ATCC700699 (resistant to Methicillin and Oxacillin), CAMHB, 37° C., 18-20 hours, 90% growth inhibition
Experimental: as §1, §2, §3, §4, §5, §6, §7

[3] = system: Staphylococcus aureus ATCC29213; assay: MIC broth microdilution, S. aureus ATCC29213; settings: Staphylococcus aureus ATCC29213 (sensitive strain), CAMHB, 37° C., 18-20 hours, 90% growth inhibition
Experimental: as §1, §2, §3, §4, §5, §6, §7

[4] = system: Staphylococcus aureus (Gentamicin resistant) ATCC43300; assay: MIC broth microdilution, S. aureus ATCC43300; settings: Staphylococcus aureus ATCC43300 (resistant to Methicillin, Oxacillin, Gentamicin and Azithromycin), CAMHB, 37° C., 18-20 hours, 90% growth inhibition
Experimental: as §1, §2, §3, §4, §5, §6, §7

[5] = system: Escherichia coli ATCC9637; assay: MIC broth microdilution, E. coli ATCC9637; settings: CAMHB, 37° C., 18-20 hours, 90% growth inhibition
Experimental: [The source words this procedure for another organism and reports this organism under the same test.] as §1, §2, §3, §4, §5, §6, §7

[6] = system: Pseudomonas aeruginosa ATCC 9027; assay: MIC broth microdilution, P. aeruginosa ATCC 9027; settings: 37° C., 18-20 hours, 90% growth inhibition
Experimental: [The source words this procedure for another organism and reports this organism under the same test.] as §1, §2, §3, §4, §5, §6, §7

[7] = system: Klebsiella pneumoniae ATCC 700603; assay: MIC broth microdilution, K. pneumoniae ATCC 700603; settings: 37° C., 18-20 hours, 90% growth inhibition
Experimental: [The source words this procedure for another organism and reports this organism under the same test.] as §1, §2, §3, §4, §5, §6, §7

[8] = system: Gram-positive Staphylococcus aureus strains, including MRSA and GR-MRSA; assay: MIC, summary over S. aureus strains; settings: various Staphylococcus aureus strains, including MRSA and GR-MRSA (text summary of Table 1)
Experimental: as §1, §2, §3
as §4, with “CFU/mL. […]” for “CFU/mL.”
After incubation, visual readings were recorded, and the optical density was measured at 600 nm in spectrophotometer. […]

[9] = ATCC700603, CAMHB, read-out: MIC

Compound	MIC [1] [µg/mL]	MIC [2] [µg/mL]	MIC [3] [µg/mL]	MIC [4] [µg/mL]	MIC [5] [µg/mL]	MIC ([6]; CAMHB) [µg/mL]	MIC ([7]; CAMHB) [µg/mL]	MIC ([1]; read-out: MIC) [µg/mL]	MIC ([2]; read-out: MIC) [µg/mL]	MIC ([3]; read-out: MIC) [µg/mL]	MIC ([4]; read-out: MIC) [µg/mL]	MIC ([5]; read-out: MIC) [µg/mL]	MIC ([6]; ATCC9027, CAMHB, read-out: MIC) [µg/mL]	MIC [7, 9] [µg/mL]	MIC [8] [µg/mL]
gentamicin	0.25	>32.00	0.50	>32.00	1.00	2.00	16.00								
C[C@H]1COc2c(N3CCN(C)CC3)c(F)cc3c(=O)c(C(=O)O)cn1c23 [Levofloxacin, levofloxacin]								0.13 (≈ 0.36 µM)	16 (≈ 44.3 µM)	0.13 (≈ 0.36 µM)	0.13 (≈ 0.36 µM)	≤ 0.06	0.5 (≈ 1.38 µM)	0.5 (≈ 1.38 µM)	
CCCc1nn(C)c2c(-c3c[nH]c4ccc(Cl)cc34)nc(-c3ccc(Cl)cc3)nc12 [Compound 7, 7-(5-chloro-1H-indol-3-yl)-5-(4-chlorophenyl)-1-methyl-3-propyl-1H-pyrazolo[4,3-d]pyrimidine]								1 (≈ 2.29 µM)	1 (≈ 2.29 µM)	1 (≈ 2.29 µM)	1 (≈ 2.29 µM)	> 1000	> 1000	> 1000	1 (≈ 2.29 µM)
CCn1cc(C(=O)O)c(=O)c2cc(F)c(N3CCNCC3)cc21 [Norfloxacin, norfloxacin]								2 (≈ 6.26 µM)	> 32	1 (≈ 3.13 µM)	1 (≈ 3.13 µM)	≤ 0.06	0.5 (≈ 1.57 µM)	4 (≈ 12.5 µM)	
